Experimental data from patent US11839636B1, “Pharmaceutical composition based on plant raw materials: #2.1” (priority 2022, dated 2023).

System: malondialdehyde (MDA)
Experiment: In vitro study of antioxidant effect (FeSO4-activated malondialdehyde in blood serum)
Type: biochemical
Settings: 0.1 ml sample, 0.3 ml blood serum, FeSO4, 37° C. 15 min, MDA at 535 nm
Description: Three samples were examined to evaluate antioxidant effectiveness. […] Method: evaluation was done by determining the intermediate product of the lipid oxidation process, malondialdehyde (MDA). Amount of MDA increases under the influence of ferrous sulfate (FeSO4), this moment was used as a model for the activated oxidation process. Sequence of analysis: 0.1 ml of test sample, 1 μmol of ferrous sulfate solution was added to 0.3 ml of blood serum and incubated at 37° C. for 15 min. Then 3 ml of 3% orthophosphoric acid and 1 ml of 0.6% thiobaric acid were added to the incubation mixture. The mixture was placed on a boiling water bath for one hour. Then 4 ml of butanol was added. The obtained mixture was centrifuged for 10 minutes at 3000 rpm. In the obtained supernatant, the optical density (E) was determined on a spectrometer on a wavelength of 535 nm. MDA concentration (C) was determined by the formula C=E×84.5 μmol/L. The difference between the background concentration of MDA and iron activated was 100%, while the antioxidant activity of the samples was conditionally expressed in %.

## O=C(O)CN(CCN(CC(=O)O)CC(=O)O)CC(=O)O [Ethylenediaminetetraacetate]
  Relative Antioxidant Activity in %: 92%
